Measurements taken from US8012929B2, “Peptides directed for diagnosis and treatment of amyloid-associated diseases” (Tel Aviv University Future Technology Development L.P., priority 2002, dated 2011).
Like-named read-outs stand apart in the source and are kept apart here. Square brackets hold non-standard residues; d marks the D form. Peptide text beside a SMILES is read from it. Aib = CC(C)(N)C(=O)O

Columns and labels:
in vivo = conditions: CD-1, mouse
Description: Animals were treated following a 4 hour fast, with water ad libitum, and fed 2 hours after administration. Thereafter, animals were sacrificed at different time intervals (5 minutes-8 hours; 3 animals in each group, at every time interval were sacrificed by sodium pentobarbital anesthesia followed by exanguination) and blood (plasma), brain, liver, kidney and pancreas were collected and later analyzed. Plasma and brain tissue samples were analyzed by high-performance liquid chromatography with tandem mass spectrometry (LC-MS/MS).
In case of brain tissue, only AUC0-4 was calculated. All parameters were calculated using the software PK solutions Version 2.0 for Noncompartmental Pharmacokinetics Data analysis (Summit Research Services, Montrose, Colo.).

[1] = test system: neuronal primary cell cultures; assay: Neurotoxicity (5% assay), MTT and Calcein-AM; assay type: cell-based
Description: Neurotoxicity (5% assay)—Neural cells were grown in Poly-D-Lysine coated 96-well plates. Eighty μl medium containing 48.000 cells/well were added to each well plate containing 80 μl T.I. in the appropriate concentrations, or nutrition medium (control). Plates were kept at 37° C., 95% humidity and 5% CO2. Neurons, which begin to extend processes after a few hours in culture, were maintained in the same medium without change or addition of media for 8 days, until the end of the experiments. For Neurotoxicity, the MTT-assay was effected using a plate-reader (570 nm) for determining the culture viability, as described in Example 49. The MTT assay is based on the ability of a dehydrogenase enzyme from an active mitochondiria to produce a dark blue formazan product from the pale yellow MTT substrate, by cleaving the MTT tetrazolium rings. Since in the MTT-assay sometimes interference between the substance/drug applied and the generation of formazane crystals can be seen, it is necessary to introduce a second evaluation system. Therefore, the viability of cultures was determined with the Calcein-AM assay as well, as described in Neri et al., [Clin. Diagn. Lab Immunol. 1131-1135 (2001)], using an automated fluorescence plate-reader (485/535 nm). Calcein AM is a widely used green fluorescent cell marker, which is membrane-permeant and thus can be introduced into cells via incubation. […]

hERG potassium channel = target: T1, hERG potassium channel (Homo sapiens, UniProt Q12809); assay: Functional hERG assay (patch clamp); assay type: cell-based
T1 construct: expressed in transfected cells
T1 sequence (Q12809 whole entry): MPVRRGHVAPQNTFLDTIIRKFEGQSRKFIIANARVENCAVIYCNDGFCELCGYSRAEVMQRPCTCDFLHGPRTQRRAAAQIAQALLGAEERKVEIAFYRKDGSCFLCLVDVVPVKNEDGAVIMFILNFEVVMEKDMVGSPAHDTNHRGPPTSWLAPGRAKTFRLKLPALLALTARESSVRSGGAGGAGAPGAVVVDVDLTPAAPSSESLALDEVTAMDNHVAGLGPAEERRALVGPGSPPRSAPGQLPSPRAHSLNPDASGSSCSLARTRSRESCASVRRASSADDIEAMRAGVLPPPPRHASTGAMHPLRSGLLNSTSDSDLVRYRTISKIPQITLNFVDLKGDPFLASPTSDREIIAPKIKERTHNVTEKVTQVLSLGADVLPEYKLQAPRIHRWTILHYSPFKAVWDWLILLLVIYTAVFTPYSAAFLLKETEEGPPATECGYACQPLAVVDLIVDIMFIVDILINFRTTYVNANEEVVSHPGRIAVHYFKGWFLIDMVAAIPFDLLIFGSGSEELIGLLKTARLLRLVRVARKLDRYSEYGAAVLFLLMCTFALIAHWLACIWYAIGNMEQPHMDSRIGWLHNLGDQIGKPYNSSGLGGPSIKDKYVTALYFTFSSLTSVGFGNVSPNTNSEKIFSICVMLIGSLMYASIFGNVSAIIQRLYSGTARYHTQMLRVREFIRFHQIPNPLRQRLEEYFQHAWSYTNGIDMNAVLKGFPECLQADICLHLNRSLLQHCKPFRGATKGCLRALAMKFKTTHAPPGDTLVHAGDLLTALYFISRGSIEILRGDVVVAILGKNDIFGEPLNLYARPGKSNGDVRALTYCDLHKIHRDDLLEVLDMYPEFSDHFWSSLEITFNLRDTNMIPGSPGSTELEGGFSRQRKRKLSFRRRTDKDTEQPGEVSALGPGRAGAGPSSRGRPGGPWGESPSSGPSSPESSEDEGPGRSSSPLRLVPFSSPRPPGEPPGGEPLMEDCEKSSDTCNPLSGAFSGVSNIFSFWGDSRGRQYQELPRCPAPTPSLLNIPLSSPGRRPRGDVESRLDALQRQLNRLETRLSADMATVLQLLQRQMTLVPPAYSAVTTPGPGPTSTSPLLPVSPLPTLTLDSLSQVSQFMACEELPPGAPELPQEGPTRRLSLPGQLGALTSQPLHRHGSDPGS
Description: Functional hERG assay—Compounds were tested in duplicate in a 3-point dose response curve on HEK cells stably expressing the hERG potassium channel (GenBank Accession No. AAD01946). Potassium current was measured using the patch clamp technique on a Molecular Devices Patch Express 7000. hERG channels were activated by 2 second pulses to +20 mV from a holding potential of −80 mV, and K^+ currents were recorded upon repolarization to −50 mV. This voltage-clamp pulse protocol was performed continuously during the experiment (vehicle control, test compound, washout, and positive control additions). An interpulse interval of 15 seconds allowed recovery from any residual inactivation. Compounds were incubated with cells between 3-8 minutes until the current reached a steady state level. After compounds were tested, they were washed out with continuous perfusion for 3 minutes, followed by application of positive control (10 uM Cisparide).

[2] = Serum stability, human serum (HPLC); assay type: in vitro ADME; conditions: 37° C., 2 and 5 hours
Description: D-Trp-Aib serum stability—Regardless of administration route, all drugs penetrate and distribute in the body via the blood system. This milieu is based not only on cells and buffering compounds, but also on proteins, carbohydrates, lipid-protein micelles, etc. Serum proteins mainly contain carrier proteins, such as albumin, but also contain many enzymes that might treat the drug as a substrate. Thus, the susceptibility of any drug entering this environment should be evaluated. The stability of D-Trp-Aib spiked into serum was evaluated by analysis of intact sample concentrations at different time points. D-Trp-Aib (250 μg/ml PBS) was incubated with mouse (Harlan Biotech, Israel) or human (obtained from Sheba medical center, Tel Hashomer, Israel) sera or PBS (1:1, 37° C.), and aliquots were analyzed by HPLC analysis at times 0, 2 and 5 hrs. The reaction was stopped and precipitation was effected by the addition of acetonitrile (Baker, Phillipsburg N.J.) and 10% TCA. Following centrifugation (10,000 g, 5 min), Supernatant was transferred to HPLC analysis. Mean amounts of D-Trp-Aib (μg)±s.e.m. were calculated by an internal calibration curve. […]

[3] = Acute toxicity in mice, single i.v. dose; conditions: both sexes, mouse, in vivo, iv
Description: Acute Toxicity in Mice—Single dose LD50 or maximal tolerated dose (MTD) of D-Trp-Aib was evaluated by i.v. administration in mice (Harlan Biotech Israel). The sequential method applied in a stepwise procedure, using a minimum amount of animals. At a preliminary phase, an initial single target dose of 250 mg/kg was administered to a group of one male and one female. Further higher dose levels of 500, 1,000 and 750 mg/kg were administered in view of presence or absence of lethality incidence and/or severe adverse reactions at each applied level. The time intervals between the test groups dosing sessions were at least 24 hours. Following termination of the preliminary phase and based on its findings, a main phase was conducted where 5 males & 5 females were administered the jointly selected dose of 750 mg/kg, the highest dose level that was suspected to produce no mortality.

[4] = target: T2, β-amyloid1-42 globulomers (Homo sapiens, UniProt P05067); assay: β-amyloid1-42 globulomer formation (6E10 immunoblot, densitometry); assay type: biochemical; conditions: 0.13 mM β-amyloid, 1:5 to 1:20 molar ratio, 18 hours at 37° C.
T2 construct: β-amyloid monomers (0.4 mM) were produced by dissolving the 1-42 peptide in 1,1,1,3,3,3-hexafluoroisopropanol; purchased Bachem (Bubendorf Switzerland)
T2 sequence (P05067 672-713): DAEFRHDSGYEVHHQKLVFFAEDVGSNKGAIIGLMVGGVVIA
Description: […] Solutions were then separated using a 15% Tris-Tricine gel, and transferred to a PVDF membrane, which was screened with a mouse anti β-amyloid monoclonal antibody (6E10; Signet, Dedham, Mass.)

[5] = inhaled or intranasal, 20 mg/kg

Structure (SMILES): CC(C)(NC(=O)[C@H](N)Cc1c[nH]c2ccccc12)C(=O)O [D-Trp-Aib] (H-[dW]-[Aib]-OH)
- half-life (in vivo): 66 to 72 min
- bioavailability (in vivo; inhaled or intranasal): 65.5%
- AUC(0-inf) (in vivo; [5]): 11400 ng·h/mL
- AUC(0-t) (in vivo; [5]): 10600 ng·h/mL
- MRT (in vivo; [5]): 58.8 min
- half-life (in vivo; [5]): 77.4 min
- AUC(0-inf) (in vivo; iv, 50 mg/kg): 40600 ng·h/mL
- AUC(0-t) (in vivo; iv, 50 mg/kg): 40600 ng·h/mL
- MRT (in vivo; iv, 50 mg/kg): 26.4 min
- Vd (in vivo; iv, 50 mg/kg): 2.16 L/kg
- bioavailability (in vivo; iv, 50 mg/kg): 100%
- clearance (in vivo; iv, 50 mg/kg): 20.5 mL/min/kg
- half-life (in vivo; iv, 50 mg/kg): 73.2 min
- AUC(0-inf) (in vivo; po, 50 mg/kg): 15700 ng·h/mL
- AUC(0-t) (in vivo; po, 50 mg/kg): 15700 ng·h/mL
- Cmax (in vivo; po, 50 mg/kg): 9810 ng/mL
- MRT (in vivo; po, 50 mg/kg): 77.4 min
- Tmax (in vivo; po, 50 mg/kg): 1 h
- bioavailability (in vivo; po, 50 mg/kg): 38.7%
- half-life (in vivo; po, 50 mg/kg): 64.2 min
- cytotoxicity towards neuronal primary cell cultures ([1]; MTT viability assay and Calcein AM assay): noncytotoxic
- neuronal viability compared to the untreated control ([1]; concentration of up to 150 μM): did not alter neuronal viability
- effect on potassium channels (hERG potassium channel; HEK cells stably expressing hERG): did not show any effect on potassium channels
- IC50 (hERG potassium channel; human, HEK cells stably expressing the hERG potassium channel, read-out: IC50 for potassium current): > 50 µM
- D-Trp-Aib concentration after incubation in serum [2]: No decrease
- MTD [3]: > 750 mg/kg
- MTD ([3]; single dose, i.v., read-out: maximal tolerated dose (MTD)): < 1000 mg/kg
- amount of globulomers (densitometer analysis) [4]: about 45 % of the control
